Results as given in US8912121B2, “Herbicidal compositions comprising 4-amino-3-chloro-5-fluoro-6-(4-chloro-2-fluoro-3-methoxyphenyl)pyridine-2-carboxylic acid or a derivative thereof and certain PS II inhibitors” (Dow Agrosciences LLC, priority 2012, dated 2014).

Legend:
Experiment in all cases: Pre-emergence soil-applied mixtures, greenhouse
[1] = tested on: SETFA (Setaria faberi, giant foxtail); type: in vivo, Setaria faberi Herrm.; details: Diuron 280 g ai/ha; 29 DAA
From the text: (§1) Seeds or nutlets of the desired test plant species were planted in a soil matrix prepared by mixing a loam soil (32 percent silt, 23 percent clay, and 45 percent sand, with a pH of about 6.5 and an organic matter content of about 1.9 percent) and calcareous grit in an 80 to 20 ratio. The soil matrix was contained in plastic pots with a volume of 1 quart and a surface area of 83.6 square centimeters (cm^2).
(§2) Treatments consisted of the benzyl ester of 4-amino-3-chloro-5-fluoro-6-(4-chloro-2-fluoro-3-methoxy-phenyl)pyridine-2-carboxylic acid (compound A) formulated as an SC (suspension concentrate) and various herbicidal components alone and in combination. Forms of compound A were applied on an acid equivalent basis.
(§3) Other herbicidal components were applied on an acid equivalent or active ingredient basis and included the PSII-inhibiting herbicides, atrazine formulated as Atrazine® 90WDG, metribuzin formulated as Metribuzin 75DF, simazine formulated as Princep Caliber 90, tebuthiuron formulated as Spike 80DF, cyanazine (technical grade material), hexazinone (technical grade material), linuron (technical grade material), terbuthylazine (technical grade material), and diuron formulated as Diuron 4L.
(§4) Treatment requirements were calculated based upon the rates being tested, the concentration of active ingredient or acid equivalent in the formulation, and a 12 mL application volume at a rate of 187 L/ha.
(§5) For treatments comprised of formulated compounds, measured amounts of compounds were placed individually in 25 mL glass vials and diluted in a volume of 1.25% (v/v) Agri-Dex® crop oil concentrate (COC) to obtain 12× stock solutions. […] Application solutions were prepared by adding an appropriate amount of each stock solution (e.g., 1 mL) and diluted to the appropriate final concentrations with the addition of 10 mL of an aqueous mixture of 1.25% (v/v) COC so that the final spray solutions contained 1.25% (v/v) COC.
(§6) For treatments comprised of technical compounds, weighed amounts can be placed individually in 25 mL glass vials and dissolved in a volume of 97:3 (v/v) acetone/DMSO to obtain 12× stock solutions. […] Application solutions can be prepared by adding an appropriate amount of each stock solution (e.g., 1 mL) and diluted to the appropriate final concentrations with the addition of 10 mL of an aqueous mixture of 1.5% (v/v) COC so that the final spray solutions contain 1.25% (v/v) COC. When technical materials are used, the concentrated stock solutions can be added to the spray solutions so that the final acetone and DMSO concentrations of the application solutions are 16.2% and 0.5%, respectively.
(§7) For treatments comprised of formulated and technical compounds, weighed amounts of the technical materials can be placed individually in 25 mL glass vials and dissolved in a volume of 97:3 (v/v) acetone/DMSO to obtain 12× stock solutions, and measured amounts of the formulated compounds can be placed individually in 25 mL glass vials and diluted in a volume of 1.5% (v/v) COC or water to obtain 12× stock solutions. […] Application solutions can be prepared by adding an appropriate amount of each stock solution (e.g., 1 mL) and diluted to the appropriate final concentrations with the addition of an appropriate amount of an aqueous mixture of 1.5% (v/v) COC so that the final spray solutions contain 1.25% (v/v) COC. As required, additional water and/or 97:3 (v/v) acetone/DMSO can be added to individual application solutions so that the final acetone and DMSO concentrations of the application solutions being compared are 8.1% and 0.25%, respectively.
(§8) All stock solutions and applications solutions were visually inspected for compound compatibility prior to application. Spray solutions were applied to the soil with an overhead Mandel track sprayer equipped with a 8002E nozzles calibrated to deliver 187 L/ha over an application area of 0.503 m^2 at a spray height of 18 inches (46 cm) above average pot height. […]

[2] = tested on: BRAPP (Brachiaria platyphylla, broadleaf signalgrass); type: in vivo, Brachiaria platyphylla (Groseb.) Nash; details: 28 DAA
From the text: as §1, §2, §3, §4, §5, §6, §7, §8

[3] = tested on: ABUTH (Abutilon theophrasti, velvetleaf); type: in vivo, Abutilon theophrasti Medik.
From the text: as §1, §2, §3, §4, §5, §6
as §7, with “As required, additional water and/or 97:3 (v/v) acetone/DMSO can be added to individual application solutions so that the final acetone and DMSO concentrations of the application solutions being compared are 8.1% and 0.25%, respectively.” left out

[4] = tested on: ECHCG (Echinochloa crus-galli, barnyardgrass); type: in vivo, Echinochloa crus-galli (L.) P. Beauv.
From the text: as §1, §2, §3, §4, §5
For treatments comprised of technical compounds, weighed amounts can be placed individually in 25 mL glass vials and dissolved in a volume of 97:3 (v/v) acetone/DMSO to obtain 12× stock solutions. […]
(§9) For treatments comprised of formulated and technical compounds, weighed amounts of the technical materials can be placed individually in 25 mL glass vials and dissolved in a volume of 97:3 (v/v) acetone/DMSO to obtain 12× stock solutions, and measured amounts of the formulated compounds can be placed individually in 25 mL glass vials and diluted in a volume of 1.5% (v/v) COC or water to obtain 12× stock solutions. […]

[5] = tested on: ECHCO (Echinochloa colonum, junglerice); type: in vivo, Echinochloa colonum (L.) Link; details: Diuron 280 g ai/ha
From the text: as §1, §2, §3, §4
(§10) For treatments comprised of formulated compounds, measured amounts of compounds were placed individually in 25 mL glass vials and diluted in a volume of 1.25% (v/v) Agri-Dex® crop oil concentrate (COC) to obtain 12× stock solutions. […]
as §9

[6] = tested on: SETVI (Setaria viridis, green foxtail); type: in vivo, Setaria viridis (L.) Beauv.; details: Diuron 280 g ai/ha
From the text: as §1, §2, §3, §4, §10, §9

CN(C)C(=O)Nc1ccc(Cl)c(Cl)c1 [Diuron, N′-(3,4-dichlorophenyl)-N,N-dimethylurea, reference compound]
Visual Weed Control (%)-29 DAA SETFA Obs [1]: 5%
Visual Weed Control (%)-28 DAA BRAPP Obs ([2]; Diuron 280 g ai/ha): 0%
Visual Weed Control (%)-28 DAA BRAPP Obs ([2]; Diuron 560 g ai/ha): 35%
Visual Weed Control (%)-29 DAA ABUTH Obs ([3]; Diuron 280 g ai/ha): 30%
Visual Weed Control (%)-29 DAA ABUTH Obs ([3]; Diuron 560 g ai/ha): 70%
Visual Weed Control (%)-29 DAA ABUTH Obs ([3]; Diuron 1120 g ai/ha): 90%
Visual Weed Control (%)-28 DAA ECHCG Obs ([4]; Diuron 280 g ai/ha): 25%
Visual Weed Control (%)-28 DAA ECHCG Obs ([4]; Diuron 560 g ai/ha): 65%
Visual Weed Control (%)-29 DAA ECHCO Obs [5]: 15%
Visual Weed Control (%)-29 DAA SETVI Obs [6]: 0%
